Assay results reported in patent publication US11230541B2, “Heterocyclic compound” (Takeda Pharmaceutical Company Limited, priority 2017, dated 2022).
Counter-ions that a name gives are not always drawn.

Biological target: T1, NMDA receptor composed of four subunits including 2 sets of heterodimers of NR1 and NR2B (Homo sapiens, UniProt Q13224)
T1 construct: host or cells: HEK293 (tetracycline-induced expression)
Test: NR2B Ca2+ influx assay (FLIPR, Fluo-4) in HEK293 cells expressing human GRIN1 and GRIN2B
Format: cell-based
Conditions: HEK293, 10 μM final compound concentration, glutamic acid/glycine-induced Ca2+ influx, read-out: inhibitory rate (10 μM compound concentration)
Text: To confirm the “antagonistic action on an NMDA receptor containing the NR2B subunit” of the compound of the present invention, human embryonic kidney cell expressing the “NMDA receptor composed of four subunits including 2 sets of heterodimers of NR1 and NR2B”, specifically HEK293 cell expressing human glutamate ionotropic receptor NMDA type subunit 1 (GRIN1) and human glutamate ionotropic receptor NMDA type subunit 2B (GRIN2B), was used and the activation suppressive effect on the receptors was measured.
As an index of the NMDA receptor activation, intracellular calcium ion (Ca^2+) influx caused by the binding of glycine and glutamic acid with NR1 and NR2B, respectively, was used. HEK293 cells were purchased from ChanTest. The cells were cultured in a DMEM/F-12 (COSMO BIO, 10-092-CM) medium added with 10% FBS′(fetal bovine serum, AusGene), 100 units/mL penicillin, 100 μg/mL streptomycin, 500 μg/mL neomycin, 100 μg/mL Zeocin, 5 μg/mL Blasticidin at 37° C., 5% CO2. The cells were detached from flask with trypsin the day before the assay, suspended in a seeding medium (DMEM (Invitrogen, 31053) added with 10% FBS, 100 units/mL penicillin, 100 μg/mL streptomycin) at 8×10^5 cells/mL, seeded by 25 μL per well in a 384-well plate (Falcon, 356663) at 20000 cells/well, and cultured overnight in an incubator. On the day of the assay, tetracycline (Wako Pure Chemical Industries, Ltd., 209-16561) was diluted with the seeding medium at 2 μg/mL, added at […] to the plate seeded with the cells, and cultured for 2 hr in an incubator. Thereafter, the medium was removed, and the cells were washed with 50 μL/well assay buffer (137 mM NaCl, 4 mM KCl, 1.8 mM CaCl2, 10 mM HEPES (pH 7.2), 10 mM Glucose, 0.1% BSA). Then, a loading buffer (assay buffer added with 2.5 uM Fluo-4AM, 2 mM Amaranth, 1 mM Tartrazine) was added at 25 μL/well, and loading was performed in the incubator for 30 min, and at room temperature for 15 min. A solution (25 μL) of the Example compound diluted with the above-mentioned assay buffer at 30 μM (final concentration 10 μM) was added, and the cells were stood for 15 min at room temperature. Using FLIPR (Molecular Devices), 25 μL of an assay buffer containing 30 μM glutamic acid, 30 μM glycine was added, and the fluorescence signal was measured every 3 seconds for 5 min. The inhibitory activity was calculated as a relative activity value (inhibitory rate) that inhibits 100% of the cumulative value of the fluorescence value of a well added with a buffer free of glutamic acid, glycine, relative to the cumulative value of the fluorescence value of each well.

T1 sequence (Q13224 27-1484, other chains not shown): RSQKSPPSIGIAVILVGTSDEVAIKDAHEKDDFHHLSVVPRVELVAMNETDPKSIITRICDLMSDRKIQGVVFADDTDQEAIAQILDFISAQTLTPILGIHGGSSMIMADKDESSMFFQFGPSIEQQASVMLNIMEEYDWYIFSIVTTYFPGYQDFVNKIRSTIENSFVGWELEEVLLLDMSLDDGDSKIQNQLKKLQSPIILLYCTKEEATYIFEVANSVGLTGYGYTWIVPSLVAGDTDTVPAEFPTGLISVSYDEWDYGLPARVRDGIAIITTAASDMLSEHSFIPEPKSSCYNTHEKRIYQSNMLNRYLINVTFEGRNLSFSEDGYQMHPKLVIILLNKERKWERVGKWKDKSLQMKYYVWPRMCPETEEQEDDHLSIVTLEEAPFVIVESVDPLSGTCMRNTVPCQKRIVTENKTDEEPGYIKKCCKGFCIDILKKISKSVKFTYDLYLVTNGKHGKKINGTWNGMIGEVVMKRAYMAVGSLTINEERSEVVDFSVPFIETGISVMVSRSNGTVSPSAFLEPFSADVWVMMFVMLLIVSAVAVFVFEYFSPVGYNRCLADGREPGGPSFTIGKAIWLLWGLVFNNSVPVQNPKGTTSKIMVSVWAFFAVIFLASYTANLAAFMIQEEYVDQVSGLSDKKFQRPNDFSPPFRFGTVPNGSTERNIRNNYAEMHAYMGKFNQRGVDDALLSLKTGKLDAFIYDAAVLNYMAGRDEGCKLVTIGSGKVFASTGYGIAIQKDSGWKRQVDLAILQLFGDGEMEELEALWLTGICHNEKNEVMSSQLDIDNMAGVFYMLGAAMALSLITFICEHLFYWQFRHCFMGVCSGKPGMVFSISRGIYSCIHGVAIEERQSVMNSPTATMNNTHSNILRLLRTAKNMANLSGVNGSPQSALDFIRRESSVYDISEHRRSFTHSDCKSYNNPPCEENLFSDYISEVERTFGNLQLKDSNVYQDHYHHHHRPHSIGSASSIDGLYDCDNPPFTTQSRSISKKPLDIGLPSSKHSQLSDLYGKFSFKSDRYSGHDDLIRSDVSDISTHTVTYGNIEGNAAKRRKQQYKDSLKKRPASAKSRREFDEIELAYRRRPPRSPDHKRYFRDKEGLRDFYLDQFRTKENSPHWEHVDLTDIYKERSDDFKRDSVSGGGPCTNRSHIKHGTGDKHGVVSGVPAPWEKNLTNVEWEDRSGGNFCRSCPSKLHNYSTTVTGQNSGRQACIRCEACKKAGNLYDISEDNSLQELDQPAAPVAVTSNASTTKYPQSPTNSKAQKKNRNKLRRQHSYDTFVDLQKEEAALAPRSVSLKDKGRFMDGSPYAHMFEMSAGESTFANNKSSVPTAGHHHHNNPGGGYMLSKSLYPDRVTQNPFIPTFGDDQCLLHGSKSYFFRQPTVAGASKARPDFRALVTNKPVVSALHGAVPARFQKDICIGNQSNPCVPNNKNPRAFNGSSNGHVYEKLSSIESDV

Compound | inhibition at 10 µM
COc1ccc2ncn(C)c2c1CNC(=O)c1cc(F)c(Cl)c(F)c1 [Example 15, 4-chloro-3,5-difluoro-N-((6-methoxy-1-methyl-1H-benzimidazol-7-yl)methyl)benzamide] | 95%
O=C(NCc1cccc2[nH]ncc12)c1cc(Cl)c(Cl)s1 [Example 168, 4,5-dichloro-N-(1H-indazol-4-ylmethyl)thiophene-2-carboxamide] | 90%
O=C(NCc1cccc2[nH]nc(Br)c12)c1ccc(OC(F)(F)F)c(F)c1 [Example 272, N-[(3-bromo-1H-indazol-4-yl)methyl]-3-fluoro-4-(trifluoromethoxy)-benzamide] | 59%
COc1ccc2ncn(C)c2c1CNC(=O)c1cc(Cl)c(Cl)s1 [Example 53, 4,5-dichloro-N-((6-methoxy-1-methyl-1H-benzimidazol-7-yl)-methyl)thiophene-2-carboxamide] | 91%
O=C(NCc1c(C2CC2)ccc2[nH]ncc12)c1ccc(OC(F)F)cc1 [Example 100, N-((5-cyclopropyl-1H-indazol-4-yl)methyl)-4-(difluoromethoxy)-benzamide] | 91%
Cc1n[nH]c2cccc(CNC(=O)c3cnc(OC(F)F)c(F)c3)c12 [Example 271, 6-(difluoromethoxy)-5-fluoro-N-((3-methyl-1H-indazol-4-yl)methyl)nicotinamide] | 82%
O=C(NCc1cccc2[nH]ncc12)c1cc(F)c(OC(F)F)c(F)c1 [Example 184, 4-(difluoromethoxy)-3,5-difluoro-N-(1H-indazol-4-ylmethyl)benzamide] | 93%
CCOc1ncc(C(=O)NCc2c(OC)ccc3ncn(C)c23)cc1Cl [Example 58, 5-chloro-6-ethoxy-N-((6-methoxy-1-methyl-1H-benzimidazol-7-yl)methyl)nicotinamide] | 93%
O=C(NCc1cccc2[nH]ncc12)c1cnc(OC(F)F)c(F)c1 [Example 191, 6-(difluoromethoxy)-5-fluoro-N-(1H-indazol-4-ylmethyl)nicotinamide] | 94%
COc1cc(C(=O)NCc2c(OC)ccc3ncn(C)c23)ccc1F [Example 46, 4-fluoro-3-methoxy-N-((6-methoxy-1-methyl-1H-benzimidazol-7-yl)methyl)benzamide] | 68%
COc1ccc2nc(C)n(C)c2c1CNC(=O)c1cc(F)c(C(F)F)c(F)c1 [Example 240, 4-(difluoromethyl)-3,5-difluoro-N-((6-methoxy-1,2-dimethyl-1H-benzimidazol-7-yl)methyl)benzamide] | 53%
COc1ccc2ncn(C)c2c1CNC(=O)c1ccc(C(F)(F)F)s1 [Example 162, N-((6-methoxy-1-methyl-1H-benzimidazol-7-yl)methyl)-5-(trifluoromethyl)-thiophene-2-carboxamide hydrochloride] | 92%
COc1ccc2nc(C)n(C)c2c1CNC(=O)c1ccc(OC(F)F)nc1 [Example 254, 6-(difluoromethoxy)-N-((6-methoxy-1,2-dimethyl-lH-benzimidazol-7-yl)methyl)nicotinamide] | 69%
CCc1ccc2[nH]nnc2c1CNC(=O)c1cnc(OC)c(F)c1 [Example 208, N-((5-ethyl-1H-benzotriazol-4-yl)methyl)-5-fluoro-6-methoxynicotinamide] | 85%
COc1ccc2nc(C)n(C)c2c1CNC(=O)c1csc(Cl)c1 [Example 228, 5-chloro-N-((6-methoxy-1,2-dimethyl-1H-benzimidazol-7-yl)methyl)thiophene-3-carboxamide] | 70%
Cc1ccc(C(=O)NCc2c(C3CC3)ccc3[nH]ncc23)s1 [Example 64, N-((5-cyclopropyl-1H-indazol-4-yl)methyl)-methylthiophene-2-carboxamide] | 91%

Compound | inhibition at 10 µM
O=C(NCc1cccc2[nH]ncc12)c1ccc(C(F)F)cc1 [Example 177, 4-(difluoromethyl)-N-(1H-indazol-4-ylmethyl)benzamide] | 52%
O=C(NCc1c(C2CC2)ccc2[nH]nnc12)c1ccc(OC(F)(F)F)cc1 [Example 203, N-((5-cyclopropyl-1H-benzotriazol-4-yl)methyl)-4-(trifluoromethoxy)-benzamide] | 93%
COc1ccc2ncn(C)c2c1CNC(=O)c1ccc(C)c(Cl)c1 [Example 38, 3-chloro-N-((6-methoxy-1-methyl-1H-benzimidazol-7-yl)-methyl)-4-methylbenzamide] | 91%
COc1c(F)cc(C(=O)NCc2c(C3CC3)ccc3[nH]ncc23)cc1F [Example 17, N-((5-cyclopropyl-1H-indazol-4-yl)methyl)-3,5-difluoro-4-methoxybenzamide] | 93%
Cc1ccc(C(=O)NCc2cccc3[nH]ncc23)cc1F [Example 176, 3-fluoro-N-(1H-indazol-4-ylmethyl)-4-methylbenzamide] | 51%
COc1ccc2ncn(C)c2c1CNC(=O)c1csc(C(F)(F)F)c1 [Example 139, N-((6-methoxy-1-methyl-1H-benzimidazol-7-yl)methyl)-5-(trifluoromethyl)thiophene-3-carboxamide] | 91%
COc1c(F)cc(C(=O)NCc2c(F)ccc3ncn(C)c23)cc1F [Example 210, 3,5-difluoro-N-((6-fluoro-1-methyl-1H-benzimidazol-7-yl)methyl)-4-methoxybenzamide] | 90%
CCc1ccc2[nH]ncc2c1CNC(=O)c1cc(F)c(OC)c(F)c1 [Example 16, N-((5-ethyl-1H-indazol-4-yl)methyl)-3,5-difluoro-4-methoxybenzamide] | 94%
O=C(NCc1c(C2CC2)ccc2[nH]ncc12)c1ccc(C(F)F)c(F)c1 [Example 118, N-((5-cyclopropyl-1H-indazol-4-yl)methyl)-4-(difluoromethyl)-3-fluorobenzamide] | 94%
CCc1ccc2ncn(C)c2c1CNC(=O)c1ccc(OC(F)F)nc1 [Example 164, 6-(difluoromethoxy)-N-((6-ethyl-1-methyl-1H-benzimidazol-7-yl)methyl)nicotinamide] | 92%
COc1ccc2ncn(C)c2c1CNC(=O)c1ccc(CC(F)(F)F)cc1 [Example 278, N-[(6-methoxy-1-methyl-1H-benzimidazol-7-yl)methyl]-4-(2,2,2-trifluoroethyl)-benzamide] | 77%
O=C(NCc1c(C2CC2)ccc2[nH]ncc12)c1cc(F)c(C(F)F)c(F)c1 [Example 108, N-((5-cyclopropyl-1H-indazol-4-yl)methyl)-(difluoromethyl)-3,5-dlfluorobenzamide] | 94%
COc1ccc2nc(C)n(C)c2c1CNC(=O)c1ccc(OC(F)(F)F)cc1 [Example 252, N-((6-methoxy-l,2-dimethyl-1H-benzimidazol-7-yl)methyl)-4-(trifluoromethoxy)-benzamide] | 88%
COc1ccc2nc(C)n(C)c2c1CNC(=O)c1ccc(F)c(Cl)c1 [Example 247, 3-chloro-4-fluoro-N-((6-methoxy-1,2-dimethyl-1H-benzimidazol-7-yl)methyl)benzamide] | 71%
COc1ccc2ncn(C)c2c1CNC(=O)Nc1cccc(F)c1 [Example 216, 1-(3-fluorophenyl)-3-((6-methoxy-l-methyl-1H-benzimidazol-7-yl)methyl)urea] | 78%
